Test results taken from BigSolDB 2.1.

O=C1C2C3C=CC(C3)C2C(=O)N1O (stereo not drawn)
solubility (mole fraction)
Settings | 278.15 K | 283.15 K | 288.15 K | 293.15 K | 298.15 K | 303.15 K | 308.15 K | 313.15 K | 318.15 K | 323.15 K
in 1,4-dioxane | – | – | 0.0796 | 0.0879 | 0.0963 | 0.107 | 0.115 | 0.128 | 0.138 | 0.153
in 2-butoxyethanol | 0.035 | 0.0408 | 0.0458 | 0.0536 | 0.0601 | 0.068 | 0.077 | 0.087 | 0.0989 | 0.11
in 2-ethoxyethanol | 0.0699 | 0.0774 | 0.0856 | 0.093 | 0.101 | 0.112 | 0.121 | 0.132 | 0.144 | 0.158
in 2-methoxyethanol | 0.106 | 0.115 | 0.122 | 0.131 | 0.141 | 0.154 | 0.164 | 0.179 | 0.188 | 0.205
in 2-propoxyethanol | 0.0446 | 0.0502 | 0.0566 | 0.0645 | 0.0718 | 0.0804 | 0.0896 | 0.0998 | 0.112 | 0.123
in acetone | 0.0266 | 0.0317 | 0.0374 | 0.0447 | 0.052 | 0.0606 | 0.0706 | 0.0817 | 0.0938 | 0.108
in acetonitrile | 0.0165 | 0.0201 | 0.0223 | 0.0258 | 0.0298 | 0.034 | 0.0387 | 0.0443 | 0.0505 | 0.0587
in ethanol | 0.0303 | 0.0352 | 0.042 | 0.051 | 0.0592 | 0.0703 | 0.082 | 0.0969 | 0.112 | 0.131
in ethyl acetate | 0.00721 | 0.00912 | 0.0112 | 0.0134 | 0.0156 | 0.0192 | 0.0229 | 0.0271 | 0.0323 | 0.0373
in isopropanol | 0.0197 | 0.0238 | 0.0287 | 0.0338 | 0.0403 | 0.0495 | 0.0577 | 0.0672 | 0.0774 | 0.089
in methanol | 0.0706 | 0.0796 | 0.0896 | 0.102 | 0.111 | 0.128 | 0.138 | 0.151 | 0.167 | 0.181
in n-propanol | 0.0192 | 0.0231 | 0.0274 | 0.034 | 0.0401 | 0.0488 | 0.0572 | 0.0651 | 0.0744 | 0.0885
